Test results published in patent US7049321B2, “Methods and pharmaceutical compositions for treatment of central and peripheral nervous system disorders and compounds useful therefor” (Israel Institute for Biological Research, priority 2002, dated 2006).

Key:
[1] = test system: cells transfected with M1 mAChR; assay: Apoptosis (DAPI, TUNEL, FACS) after starvation, Aβ or H2O2; format: cell-based, rat; conditions: for Apoptotic cell death induced by starvation: 24 hrs starvation; for H2O2-induced apoptosis: H2O2 25 and 50 μm; for Aβ-induced apoptosis: β-A25-35 or β-A1-42 (25 μM), M1 transfected cells; for Apoptotic population after β-amyloid (FACS): β-Amyloid 25–35 or 1–42
Experimental: Several experiments were performed in serum-free medium.
Cells were grown and treated on glass coverslips.
Apoptotic cells were identified as the pre-G1 phase.

[2] = test system: cells transfected with M1 mAChR; assay: as above; format: cell-based, rat; conditions: for Apoptosis after Aβ or H2O2 (DAPI): DAPI staining
[3] = test system: mice with closed head injury; assay: Closed head injury in mice, neurological severity score; format: in vivo; conditions: for Balance test (beam walk): 80% in control
Experimental: Closed head injury (CHI) was induced in mice as described in Chen et al, J Neurotrauma, 15: 231–237, 1998. Neurological severity scores (NSS) were assessed using a battery of 10 parameters (10=worst outcome, 0=normal function). The compounds tested (1 mg compound/kg body weight) vs. placebo-treated animals were injected ip 5 min after CHI vs. placebo-treated animals. Treated mice were evaluated at 1 h, to determine the severity of injury, and at 24 and 48 h to determine recovery. The NSS was as follows: 1. […] 2.

[4] = test system: rat primary hippocampal cell cultures; assay: APPs secretion in rat primary hippocampal cell cultures; format: cell-based; conditions: 100 μm; culture not given
[5] = in vivo; conditions: mouse
Experimental: This calculation was based on the brain weight (2 gr) vs. total plasma volume (14 ml).

[6] = test system: tau protein; assay: tau-1 immunoreactivity in primary cell cultures (western blot); format: cell-based, rat; conditions: 1–100 μM, cortical and hippocampal cell cultures
Experimental: Primary cell cultures were grown as described in EXAMPLE 38. Cell supernatants were removed and the cells were washed once in medium prior to the addition of cold phosphate buffre saline ph=7.4 (PBS) solution containing 0.2 mM EDTA. Cells were scraped using a rubber policeman, transferred to Eppendorf tubes, and centrifuged at 4° C. Cell pellets were resuspended in lysis buffer (EDTA 5 mM, Tris 50 mM, Triton 1%, NaCl 150 mM) containing protease inhibitors (5 units/ml apronitin, […] and 0.1 mM PMSF, Sigma) and subjected to centrifugation at 4° C. Supernatants were transferred into Eppendorf tubes and kept at −20° C. till analyzed. The extent of tau-1 immunoreactivity (an antibody that recognizes a non-phosphorylated tau at Ser^199) was determined by western blots.

[7] = test system: C57BL6J mice; assay: Morris water maze in normal hippocampus mice; format: in vivo; conditions: for Training, escape latency: 0.5 and 1 mg/kg i.p. (rivastigmine, nicotine 1 mg/kg); for Training, path length: AF150(S) only the higher dose; for Reversal test, swimming speed: AF150(S)-0.5 mg/kg, AF267B-1 mg/kg, rivastigmine, nicotine
Experimental: Each group of mice was randomly divided into 7 treatment groups (n=12-14/group). […] All tested compounds and saline were administered once a day for 4 days before starting the behavioral testing, and then for the duration of the 5-day experiment, 30 minutes before testing.
Training: Each mouse was trained for four consecutive days, four trials (one block) per day, in which the platform position remained constant and was located in the center of the southeast quadrant of the pool. Within each block of four trials, each mouse started at each of the starting locations, but the sequence of locations was randomly selected. A trial consisted of placing a mouse by hand into the water facing the wall of the pool at one of four starting locations, north, south, east or west, around the pool's perimeter. Escape latency (the time to find the platform), path length (the distance traveled by the mouse) and speed (the swimming rate of the mouse) were recorded on each trial by the monitoring system.
For each mouse, the path length, escape latency, and swimming speed of the four trials on each of the 4 training days were grouped into blocks (one block for each day). […] Specific comparisons were performed, using the simple main effects contrasts acalysis, which is specifically suited for testing significant interactions.
Transfer test. During trial No. 17, on the fourth day, the platform was entirely removed from the pool (a probe trial). In this trial, the mouse was placed into the water for a limited period (30 s), and its spatial bias was measured by recording the relative distribution of escape latency and path length over the four quadrants of the pool.
Reversal test. During trials 18–21, on the fifth day, the platform position was changed to the northwest quadrant, opposite to the training quadrant. Thus, during reversal learning, the platform location was moved relative to the configuration of objects within the room, but the pool occupied the same place within the room throughout the entire experiment. Testing of the rats and measures taken were the same as in training.
For each mouse, the escape latency, path length and swimming speed of the reversal test (trials No. 18–21) were grouped into one block.

[8] = CNS safety: general observation and Irwin test in rats; format: in vivo, rat
Experimental: AF292 was evaluated in rodents for possible effects on general behavior and other CNS related pharmacological effects. […] No behavioral or physical signs were observed 24 hours after administration. All rats were retained for 14 days, and throughout this retention period all rats appeared normal.

[9] = test system: tau proteins; assay: tau phosphorylation, AT8 immunoblot; format: cell-based; conditions: 100 μM; to the control level
Excerpt: Following the experimental design of Sadot et al., J. Neurochem. […] By linking an M1 agonist to an antioxidant moiety tau phophorylation may be decreased, providing a new therapeutic strategy in a variety of CNS disease states due to combined damage due to oxidative stress and tau hyperphosphorylation.

[10] = test system: AF64A-injected rats; assay: Passive avoidance in AF64A-treated rats; conditions: for Retention latency: 72 h after training; for Minimal effective dose: p.o.
[11] = Metabolic stability, monkey liver microsomes; format: in vitro ADME; conditions: read-out: Metabolic Stability T1/2
Experimental: The metabolic stability of AF292 was evaluated by monitoring its disappearance while incubated with rat, […], monkey, and human hepatic microsomes. Testosterone, and propranolol were run as assay controls.

[12] = test system: Human α-glycoprotein (AGP); assay: Protein binding, human α-glycoprotein; format: in vitro ADME; conditions: 10 μM
Experimental: Protein binding studies were carried out in human plasma, α1-glycoprotein, human serum albumin (HSA), and Dulbecco's Phosphate Buffered Saline (PBS). AF292 was added to a final concentration of 10 μM. […] (μM) and in human […] (AGP), (see Table 1).

[13] = 1 mg/kg ip 5 min after CHI, 1 h

SMILES	Apoptotic death during starvation (FACS) [1]	Apoptotic cell death induced by starvation [1]	H2O2-induced apoptosis [1]	Aβ-induced apoptosis [1]	Apoptotic population after β-amyloid (FACS) [1]	Apoptosis after Aβ or H2O2 (DAPI) [2]	NSS [3, 13]	NSS ([3]; 1 mg/kg ip, 24 h)	NSS ([3]; 1 mg/kg ip, 48 h)	APPs secretion, fold over control (agonists vs CCh) [4] [fold]	Tmax [5] [min]	tau-1 immunoreactivity [6]	Training, escape latency [7]	Training, path length [7]	Reversal test, swimming speed [7]	Training, swimming speed ([7]; mouse, in vivo)	tau phosphorylation (AT8) [9]	Minimal effective dose [10]	half-life [11] [min]	Protein Binding [12]	further results
CC1=NCC2(CCN(C)CC2)S1 [AF150(S), 2,8-Dimethyl-1-thia-3,8-diaza-spiro[4.5]dec-2-ene]	protected cells from apoptotic death	significantly protect	prevented H2O2-induced apoptosis	prevented	reduced the apoptotic population significantly	protect these cells from apoptosis	8.00+/−0.21	4.30+/−0.26	2.90+/−0.3	2.8	1 to 10	effective in elevating tau immunoreactivity	increased the escape latencies	impaired the path length	significantly decreased	impaired the swimming speed					Apoptosis, TUNEL ([2]; 100 μM, 25 μM β-amyloid 25–35): able to block the apoptosis; Reversal test, escape latency ([7]; AF150(S) 0.5 mg/kg): impaired the escape latency; Transfer test, spatial bias ([7]; mouse, in vivo): partial spatial bias
CC[C@@H]1SC2(CCN(C)CC2)NC1=O [AF267B, (S)-2-ethyl-8-methyl-1-thia-4,8-diaza-spiro[4.5]decan-3-one]	protected cells from apoptotic death	significantly protect	prevented H2O2-induced apoptosis	prevented	reduced the apoptotic population significantly	protect these cells from apoptosis	7.89+/−0.26	3.67+/−0.24	2.89+/−0.26	2.8	20 to 30	effective in elevating tau immunoreactivity	did not significantly affect	neither AF267B nor rivastigmine had any effect	significantly decreased	no such effect	induce dephosphorylation of tau proteins	less than 0.1 mg/kg	27	AGP = 5.7%	IRWIN TEST, duration of signs ([8]; 100 mg/kg): duration 3–6 hrs.).; IRWIN TEST, onset of signs ([8]; 100 mg/kg): 0.5 h; IRWIN TEST, signs ([8]; 100 mg/kg p.o.): 100 mg/kg: abnormalities of carriage, and apathy, decreased corneal reflex, diarrhea, and reduced grooming, increased urination, and salivation, lacrimation & and chromodacryorrhea, reduced locomotor and activity, passivity, decreased respiration, and reduced startle response; IRWIN TEST, gross behavior & physiological state ([8]; 1 & 10 mg/kg, p.o.): 1 & 10 no effect on gross behavior; Chromodacryorrhea, dose ([8]; p.o.): Chromodacryorrhea: 100 mg/kg, p.o.; Convulsion, dose ([8]; p.o.): Convulsion: 50 mg/kg, p.o.; Gnawing, dose ([8]; p.o.): Gnawing; 50 mg/kg, p.o.; Hypothermia, dose ([8]; p.o.): Hypothermia: 50 mg/kg, p.o.; Lacrimation, dose ([8]; p.o.): Lacrimation: 50 mg/kg, p.o.; Mydriasis, dose ([8]; p.o.): Mydriasis: 25 mg/kg, p.o.; Salivation, dose ([8]; p.o.): Salivation: 40 mg/kg, p.o.; Sedation, dose ([8]; p.o.): Sedation: 100 mg/kg, p.o.; Dose at which salivation and lacrimation begin ([8]; po, first hour): about 40 mg/kg; Retention latency ([10]; 0.03 mg/kg p.o.): 105.7 ± 31.9 s; Retention latency ([10]; 0.1 mg/kg p.o.): 440.7 ± 46.4 s; Balance test (beam walk) ([3]; 24 h (3 cm)): 22%; Balance test (beam walk) ([3]; 48 h (2 cm)): 33%; MRT [5]: 128 min
CC[C@@H]1SC2(CCNCC2)NC1=O [AF292, (S)-2-Ethyl-1-thia-4,8-diaza-spiro[4.5]decan-3-one]																	induce dephosphorylation of tau proteins	below 1 mg/kg	74	0%	Physical or behavioral signs (Irwin test) ([8]; 1, 10, 30, 60, 100 mg/kg, p.o.): No significant physical or behavioral signs; Retention latency ([10]; 1mg/kg p.o.): 447 ± 46.8 s
